≈ marks a conversion by molar mass, not a printed value.

The results in this text go back to ChEMBL document CHEMBL3792319, “Synthesis and antitubercular activity of 1,2,4-trisubstitued piperazines” (Bioorg Med Chem Lett, 2016).

The subject of the first assay is Mycobacterium tuberculosis. As to the kind of experiment: Antitubercular activity against rifampicin-resistant Mycobacterium tuberculosis H37Rv isolate 2 by two-fold serial dilution method. It counts as functional.
As usually defined, the MIC is the smallest concentration in the dilution series that meets the test's criterion for growth inhibition. Read a high MIC as a need for much substance. As for `CCC(C)[C@@H]1CN([C@@H](CNC)Cc2ccccc2)CCN1CCC12CC3CC(CC(C3)C1)C2` (stereo partly drawn), the minimal inhibitory concentration (MIC) stood at 48 µM (≈ 21.7 µg/mL).

In turn, `CNC[C@@H](Cc1ccccc1)N1CCN(CCC23CC4CC(CC(C4)C2)C3)CC1` showed a minimal inhibitory concentration (MIC) of 83 µM (≈ 32.8 µg/mL).

On to `CNC[C@@H](Cc1ccccc1)N1CCN(CCC(c2ccccc2)c2ccccc2)CC1`, for which it took 71 µM (≈ 30.4 µg/mL) to inhibit growth (MIC).

Another assay concerns Mycobacterium tuberculosis. As to the kind of experiment: Antitubercular activity against fluoroquinolone-resistant Mycobacterium tuberculosis H37Rv isolate 1 by two-fold serial dilution method. The class given is functional.
Take `CCC(C)[C@@H]1CN([C@@H](CNC)Cc2ccccc2)CCN1CCC12CC3CC(CC(C3)C1)C2` (stereo partly drawn): the lowest concentration to inhibit growth (MIC) was 28 µM (≈ 12.6 µg/mL).

With `CNC[C@@H](Cc1ccccc1)N1CCN(CCC23CC4CC(CC(C4)C2)C3)CC1`, inhibition of growth (MIC) required 38 µM (≈ 15 µg/mL).

`CNC[C@@H](Cc1ccccc1)N1CCN(CCC23CC4CC(CC(C4)C2)C3)[C@H](C(C)C)C1` showed an MIC of 14 µM (≈ 6.13 µg/mL).

Compound `CNC[C@@H](Cc1ccccc1)N1CCN(CCC(c2ccccc2)c2ccccc2)CC1` showed an MIC of 70 µM (≈ 29.9 µg/mL).

A further assay relates to Mycobacterium tuberculosis. As to the kind of experiment: Antitubercular activity against isoniazid-resistant Mycobacterium tuberculosis H37Rv isolate 1 by two-fold serial dilution method. It counts as functional.
The compound `CCC(C)[C@@H]1CN([C@@H](CNC)Cc2ccccc2)CCN1CCC12CC3CC(CC(C3)C1)C2` (stereo partly drawn) showed a minimal inhibitory concentration (MIC) of 38 µM (≈ 17.2 µg/mL).

`CNC[C@@H](Cc1ccccc1)N1CCN(CCC23CC4CC(CC(C4)C2)C3)CC1`: the MIC is 57 µM (≈ 22.6 µg/mL).

In turn, `CNC[C@@H](Cc1ccccc1)N1CCN(CCC23CC4CC(CC(C4)C2)C3)[C@H](C(C)C)C1` came in with an MIC of 1.8 µM (≈ 0.788 µg/mL).

`CNC[C@@H](Cc1ccccc1)N1CCN(CCC(c2ccccc2)c2ccccc2)CC1` returned an MIC of 74 µM (≈ 31.6 µg/mL).

In a further assay the test system is Mycobacterium tuberculosis. As to the kind of experiment: Antitubercular activity against rifampicin-resistant Mycobacterium tuberculosis H37Rv isolate 1 by two-fold serial dilution method. The class given is functional.
For the compound `CCC(C)[C@@H]1CN([C@@H](CNC)Cc2ccccc2)CCN1CCC12CC3CC(CC(C3)C1)C2` (stereo partly drawn), the MIC is 37 µM (≈ 16.7 µg/mL).

`CNC[C@@H](Cc1ccccc1)N1CCN(CCC23CC4CC(CC(C4)C2)C3)CC1`: the minimum inhibitory concentration (MIC) is 39 µM (≈ 15.4 µg/mL).

Consider `CNC[C@@H](Cc1ccccc1)N1CCN(CCC23CC4CC(CC(C4)C2)C3)[C@H](C(C)C)C1`, for which the MIC came to 14 µM (≈ 6.13 µg/mL).

In turn, `CNC[C@@H](Cc1ccccc1)N1CCN(CCC(c2ccccc2)c2ccccc2)CC1` yielded a minimum inhibitory concentration (MIC) of 172 µM (≈ 73.6 µg/mL).

The test system of another assay is Mycobacterium tuberculosis. The experiment in a line: Antitubercular activity against isoniazid-resistant Mycobacterium tuberculosis H37Rv isolate 2 by two-fold serial dilution method. The class given is functional.
Regarding `CCC(C)[C@@H]1CN([C@@H](CNC)Cc2ccccc2)CCN1CCC12CC3CC(CC(C3)C1)C2` (stereo partly drawn), the minimum inhibitory concentration (MIC) turned out to be 41 µM (≈ 18.5 µg/mL).

`CNC[C@@H](Cc1ccccc1)N1CCN(CCC23CC4CC(CC(C4)C2)C3)CC1` gave an MIC of 68 µM (≈ 26.9 µg/mL).

`CNC[C@@H](Cc1ccccc1)N1CCN(CCC(c2ccccc2)c2ccccc2)CC1` gave an MIC of 27 µM (≈ 11.5 µg/mL).
